Experimental data taken from patent US9169260B2 (MERCK SHARP & DOHME CORP., priority 2011, dated 2015).
pIC50: −log10 of the molar value.

Target: GST tagged IRAK-4 (Homo sapiens (Human), UniProt Q9NWZ3)
Test: IRAK-4 Kinase Assay (IMAP fluorescence polarization)
Format: biochemical
Details: 100 μM ATP, 30 minutes at 25° C.; for IC50: μM
Summary of the method: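 Activity was read by IMAP fluorescence polarization, where phosphopeptide binding to M(III) nanoparticles raises FP. The 30-minute, 25° C reaction used 100 μM ATP, 100 nM RP7030 substrate and 0.5 nM GST-IRAK-4 in pH 7.2 Tris buffer with MgCl2, DTT and Tween 20.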

Chain of GST tagged IRAK-4 (Q9NWZ3 whole entry): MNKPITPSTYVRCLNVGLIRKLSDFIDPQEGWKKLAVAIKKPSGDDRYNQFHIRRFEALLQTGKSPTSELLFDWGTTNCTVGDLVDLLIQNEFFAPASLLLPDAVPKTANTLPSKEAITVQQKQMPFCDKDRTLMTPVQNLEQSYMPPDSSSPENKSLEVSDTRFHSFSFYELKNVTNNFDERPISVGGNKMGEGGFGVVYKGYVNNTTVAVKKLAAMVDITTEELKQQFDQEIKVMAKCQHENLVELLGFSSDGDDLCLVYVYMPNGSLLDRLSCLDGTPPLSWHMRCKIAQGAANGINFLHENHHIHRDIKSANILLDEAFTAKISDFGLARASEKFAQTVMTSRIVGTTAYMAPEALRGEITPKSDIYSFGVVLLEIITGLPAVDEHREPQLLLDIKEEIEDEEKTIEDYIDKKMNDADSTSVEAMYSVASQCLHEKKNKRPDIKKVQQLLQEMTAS

| Compound | IC50 [µM] | pIC50 |
| --- | --- | --- |
| Cc1ccc(-n2nc(C3CN(Cc4cncnc4)C3)cc2NC(=O)c2cnn3cccnc23)cc1 [Example 310, N-{1-(4-methylphenyl)-3-[1-(pyrimidin-5-ylmethyl)azetidin-3-yl]-1H-pyrazol-5-yl}pyrazolo[1,5-a]pyrimidine-3-carboxamide] | < 1 | – |
| Cc1ccc(-n2nc(-c3ccc(CN4CCOCC4)cc3)cc2NC(=O)c2cnn3cccnc23)cc1 [Example 145, N-(3-(4-(morpholinomethyl)phenyl)-1-(p-tolyl)-1H-pyrazol-5-yl)pyrazolo[1,5-a]pyrimidine-3-carboxamide] | – | > 7.00 |
| O=C(Nc1cc(C2CCNCC2)nn1-c1ccc(OC(F)(F)F)cc1)c1cnn2cccnc12 [Example 13, N-(3-(piperidin-4-yl)-1-(4-(trifluoromethoxy)phenyl)-1H-pyrazol-5-yl)pyrazolo[1,5-a]pyrimidine-3-carboxamide] | < 1 | – |
| Cc1ccc(-n2nc(C3CCN(CC4CC4)CC3)cc2NC(=O)c2cnn3cccnc23)nc1 [Example 281, N-{3-[1-(cyclopropylmethyl)piperidin-4-yl]-1-(5-methylpyridin-2-yl)-1H-pyrazol-5-yl}pyrazolo[1,5-a]pyrimidine-3-carboxamide] | – | > 7.00 |
| Cc1ccc(-n2nc(C3CN(Cc4nccs4)C3)cc2NC(=O)c2cnn3cccnc23)cc1 [Example 307, N-{1-(4-methylphenyl)-3-[1-(1,3-thiazol-2-ylmethyl)azetidin-3-yl]-1H-pyrazol-5-yl}pyrazolo[1,5-a]pyrimidine-3-carboxamide] | < 1 | – |

Other lines, results leading:

| IC50 [µM] | pIC50 | Compound |
| --- | --- | --- |
| > 1 | – | Cc1ccc(-n2nc(C3CCN(S(=O)(=O)c4ccc(Cl)cc4Cl)CC3)cc2NC(=O)c2cnn3cccnc23)cc1 [Example 391, N-[3-{1[(2,4-dichlorophenyl)sulfonyl]piperidin-4-yl}-1-(4-methylphenyl)-1H-pyrazol-5-yl]pyrazolo[1,5-a]pyrimidine-3-carboxamide] |
| – | > 7.00 | Cc1ccc(-n2nc(C3CCN(Cc4cn[nH]c4)CC3)cc2NC(=O)c2cnn3cccnc23)cc1 [Example 233, N-{1-(4-methylphenyl)-3-[1-(1H-pyrazol-4-ylmethyl)piperidin-4-yl]-1H-pyrazol-5-yl}pyrazolo[1,5-a]pyrimidine-3-carboxamide] |
| < 1 | – | Cc1ccc(-n2nc(-c3cnn(C)c3)cc2NC(=O)c2cnn3cccnc23)cc1 [Example 326, N-[1′-methyl-1-(4-methylphenyl)-1H,1′H-3,4′-bipyrazol-5-]pyrazolo[1,5-a]pyrimidine-3-carboxamide] |
